Experimental data as given in BindingDB's records for doi:10.3109/14756360903389872 (Medical University, 2010).

Experiments:
Assay in all cases: Antiamidolytic Assay
Plasminogen = Plasminogen (Homo sapiens, UniProt P00747)
Experimental: (§1) Quantities of 0.2 mL of examined preparation (as control, 0.15 M NaCl), buffer, and 0.1 mL of enzyme solution were mixed together. The mixture was incubated at 37°C for 3 min then the synthetic substrate solution in the same buffer was added. After 20 min of incubation, the reaction was stopped by adding 0.1 mL of 50% acetic acid, and the absorbance of the released p-nitroaniline was measured at 405 nm.

[1] = target: Urokinase-type plasminogen activator (Homo sapiens, UniProt P00749)
Experimental: as §1

Serine protease 1 = Serine protease 1 (Homo sapiens, UniProt P07477)
Experimental: as §1

Sequence of Plasminogen (P00747 97-580 limits assumed): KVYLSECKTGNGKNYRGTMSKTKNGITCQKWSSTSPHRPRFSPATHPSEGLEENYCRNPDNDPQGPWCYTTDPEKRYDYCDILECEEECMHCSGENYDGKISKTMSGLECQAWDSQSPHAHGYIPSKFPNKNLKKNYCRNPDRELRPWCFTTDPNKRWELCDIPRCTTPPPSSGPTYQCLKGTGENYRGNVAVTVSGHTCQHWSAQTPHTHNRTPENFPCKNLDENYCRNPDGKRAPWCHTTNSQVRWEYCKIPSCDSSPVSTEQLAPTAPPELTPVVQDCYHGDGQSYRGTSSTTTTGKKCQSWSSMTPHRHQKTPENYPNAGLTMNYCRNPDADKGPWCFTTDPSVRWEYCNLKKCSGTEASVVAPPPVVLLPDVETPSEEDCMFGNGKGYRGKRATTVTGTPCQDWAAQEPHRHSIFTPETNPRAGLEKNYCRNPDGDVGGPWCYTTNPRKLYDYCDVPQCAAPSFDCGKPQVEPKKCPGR
Sequence of Plasminogen (P00747 581-810 limits assumed): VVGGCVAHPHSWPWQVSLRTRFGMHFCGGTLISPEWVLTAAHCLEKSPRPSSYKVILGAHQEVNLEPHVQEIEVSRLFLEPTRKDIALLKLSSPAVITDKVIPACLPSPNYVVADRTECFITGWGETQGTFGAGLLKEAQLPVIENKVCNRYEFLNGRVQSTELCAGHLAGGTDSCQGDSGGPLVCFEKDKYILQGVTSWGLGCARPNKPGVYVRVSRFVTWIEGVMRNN
Sequence of Serine protease 1 (P07477 whole entry): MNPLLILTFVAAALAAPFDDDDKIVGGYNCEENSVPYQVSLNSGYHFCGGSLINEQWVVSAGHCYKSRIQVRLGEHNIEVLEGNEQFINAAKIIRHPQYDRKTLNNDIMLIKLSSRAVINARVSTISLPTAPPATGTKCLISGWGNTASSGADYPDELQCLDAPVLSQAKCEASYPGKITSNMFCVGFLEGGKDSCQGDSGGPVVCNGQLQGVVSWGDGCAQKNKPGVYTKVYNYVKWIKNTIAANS

Row | SMILES | IC50 (Plasminogen) | IC50 [1] | IC50 (Serine protease 1)
1 | Nc1cccc(C(=O)Nc2cccc(C(=O)NCCCCNC(=O)c3cccc(NC(=O)c4cccc(N)c4)c3)c2)c1 [Carbocyclic minor groove binder, 5] | 20 µM | 10 µM | 
2 | N=C(N)c1ccc(OCCCCCOc2ccc(C(=N)N)cc2)cc1 [4-[5-(4-carbamimidoylphenoxy)pentoxy]benzenecarboximidamide;2-oxidanylethanesulfonic acid] | < 10 µM | 20 µM | 100 µM
3 | Cn1cc(NC(=O)c2cc(NC(=O)CN=C(N)N)cn2C)cc1C(=O)NCCC(=N)N | 40 µM | 30 µM | 

More lines, main results first:

Row | IC50 (Plasminogen) | SMILES | IC50 [1] | IC50 (Serine protease 1)
4 | 20 µM | Nc1cccc(C(=O)Nc2cccc(C(=O)NCCCNC(=O)c3cccc(NC(=O)c4cccc(N)c4)c3)c2)c1 [Carbocyclic minor groove binder, 4] |  | 
5 | 10 µM | Nc1cccc(C(=O)Nc2cccc(C(=O)NCCCCCNC(=O)c3cccc(NC(=O)c4cccc(N)c4)c3)c2)c1 [Carbocyclic minor groove binder, 6] | 14 µM | 20 µM
